The text below walks through data of patent publication US20250154105A1, “POLYCYCLIC COMPOUND AND USE THEREOF” (TYK MEDICINES, INC., priority 2021, published 2025).

Test [1] deals with human pleural mesothelioma cells NCI-H226. Description: Cell anti-proliferation experiment (CCK8), NCI-H226. Format: cell-based. The method in brief:
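Viability was measured by CCK-8 (3 h, A450) after 3-day treatment with 0.15–333.33 nM compound in 0.1% DMSO medium. Curve-fitted IC50 was based on viability normalised to no-drug and cell-free controls.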

The subject of test [2] is YAP-TEAD. Description: YAP-TEAD inhibitor activity by Nano luciferase method (8xGTiiC-nLuc reporter in 293T cells). Format: cell-based. The conditions noted are these: Homo sapiens, HEK-293T, 48 hours incubation, read-out: Nano-luciferase detection (IC50). The method in brief: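 293T cells transiently transfected with pGL3B-8xGTiiC-nLuc-CMV-fLuc, seeded 2000 cells/well, then treated 48 h at 37 °C with compounds in 1:3.16 dilution series (top 10,000 nM). Nano luciferase signal read after cell lysis; IC50 from percent of 0 nM control.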

SMILES strings stand for the structures.

As usually defined, the IC50 is the point on the concentration scale where inhibition reaches its midpoint.

Turning to `C[C@H](NC(=O)c1cnc2c(c1)c1nn(C)cc1c(=O)n2-c1ccc(C(F)(F)F)cc1)c1ccccn1` [Example T-243], the IC50 in test [1] and in test [2] was at most 1000 nM throughout.
Turning to `C[C@H](NC(=O)c1cnc2c(c1)c1ccccc1c(=O)n2-c1ccc(C(F)(F)F)cc1)c1ccccn1` [Example T-244], the IC50 in test [1] and in test [2] was at most 1000 nM each time.
As to `C[C@H](NC(=O)c1cnc2c(c1)c1c(c(=O)n2-c2ccc(C(F)(F)F)cc2)CCC1)c1ccccn1` [Example T-245], the 50% inhibitory concentration (IC50) in test [1] and in test [2] was at most 1000 nM each time.
In the case of `C[C@H](NC(=O)c1cnc2c(c1)c1cscc1c(=O)n2-c1ccc(C(F)(F)F)cc1)c1ccccn1` [Example T-246], the IC50 in test [1] and in test [2] was at most 1000 nM each time.
`C[C@H](NC(=O)c1cnc2c(c1)C1CCCCC1C(=O)N2c1ccc(C(F)(F)F)cc1)c1ccccn1` (stereo partly drawn) [Example T-247]: the IC50 in test [1] and in test [2] was at most 1000 nM each time.
On to `C[C@H](NC(=O)c1ccc2c(c1)c1ccccc1c(=O)n2-c1ccc(C(F)(F)F)cn1)c1ccccn1` [Example T-248], for which the IC50 in test [1] and in test [2] was at most 1000 nM throughout.
Regarding `C[C@H](NC(=O)c1ccc2c(c1)c1c(c(=O)n2-c2ccc(C(F)(F)F)cc2)CCC1)c1ccccn1` [Example T-249], the half-maximal inhibitory concentration (IC50) in test [1] and in test [2] was at most 1000 nM each time.
Consider `C[C@H](NC(=O)c1ccc2c(c1)c1c(c(=O)n2-c2ccc(C(F)(F)F)cc2)CN(Cc2ccccc2)C1)c1ccccn1` [Example T-251], for which the half-inhibitory concentration (IC50) in test [1] and in test [2] was 1000 to 5000 nM each time.
Take `C[C@H](NC(=O)c1ccc2c(c1)c1ncccc1c(=O)n2-c1ccc(C(F)(F)F)cc1)c1ccccn1` [Example T-252]: the IC50 in test [1] and in test [2] was at most 1000 nM in each case.
As to `C[C@H](NC(=O)c1ccc2c(c1)c1cccnc1c(=O)n2-c1ccc(C(F)(F)F)cc1)c1ccccn1` [Example T-254], the IC50 in test [1] and in test [2] was at most 1000 nM each time.
For the compound `Cc1ccc2c(=O)n(-c3ccc(C(F)(F)F)cc3)c3ccc(C(=O)N[C@@H](C)c4ccccn4)cc3c2c1` [Example T-255], the IC50 in test [1] and in test [2] was at most 1000 nM in each case.
Turning to `Cc1ccc2c(c1)c(=O)n(-c1ccc(C(F)(F)F)cc1)c1ccc(C(=O)N[C@@H](C)c3ccccn3)cc21` [Example T-256], the half-inhibitory concentration (IC50) in test [1] and in test [2] was at most 1000 nM each time.
For the compound `Cc1cccc2c1c(=O)n(-c1ccc(C(F)(F)F)cc1)c1ccc(C(=O)N[C@@H](C)c3ccccn3)cc21` [Example T-257], the half-inhibitory concentration (IC50) in test [1] and in test [2] was at most 1000 nM each time.
For the compound `C[C@H](NC(=O)c1ccc2c(c1)c1c(F)cccc1c(=O)n2-c1ccc(C(F)(F)F)cc1)c1ccccn1` [Example T-258], the half-maximal inhibitory concentration (IC50) in test [1] and in test [2] was at most 1000 nM each time.
In the case of `C[C@H](NC(=O)c1ccc2c(c1)c1cc(F)ccc1c(=O)n2-c1ccc(C(F)(F)F)cc1)c1ccccn1` [Example T-259], the IC50 in test [1] and in test [2] was at most 1000 nM throughout.
As to `C[C@H](NC(=O)c1ccc2c(c1)c1ccc(F)cc1c(=O)n2-c1ccc(C(F)(F)F)cc1)c1ccccn1` [Example T-260], the concentration for half-maximal inhibition (IC50) in test [1] was at most 1000 nM; in test [2], 1000 to 5000 nM.
In the same order, the values of `C[C@H](NC(=O)c1ccc2c(c1)c1cccc(F)c1c(=O)n2-c1ccc(C(F)(F)F)cc1)c1ccccn1` [Example T-261] are at most 1000 nM and 1000 to 5000 nM.
Consider `C[C@H](NC(=O)c1ccc2c(c1)c1c(c(=O)n2-c2ccc(C(F)(F)F)nc2)CCC1)c1ccccn1` [Example T-262], for which the half-maximal inhibitory concentration (IC50) in test [1] and in test [2] was at most 1000 nM in each case.
For `C[C@H](NC(=O)c1ccc2c(c1)c1c(c(=O)n2-c2ccc(C(F)(F)F)nc2)CCCC1)c1ccccn1` [Example T-263], the IC50 in test [1] and in test [2] was at most 1000 nM throughout.
Regarding `C[C@H](NC(=O)c1ccc2c(c1)c1cscc1c(=O)n2-c1ccc(C(F)(F)F)nc1)c1ccccn1` [Example T-264], the IC50 in test [1] and in test [2] was at most 1000 nM throughout.
As for `CNS(=O)(=O)c1ccc2c(c1)c1cscc1c(=O)n2-c1ccc(C(F)(F)F)cc1` [Example T-265], the concentration for half-maximal inhibition (IC50) in test [1] and in test [2] was at most 1000 nM in each case.
For the compound `C[C@H](NC(=O)c1ccc2c(c1)c1c(c(=O)n2C2CCC(F)(F)CC2)CCC1)c1ccccn1` [Example T-266], the IC50 in test [1] and in test [2] was at most 1000 nM in each case.
With `C[C@H](NC(=O)c1ccc2c(c1)c1c(c(=O)n2C2CCC(F)(F)CC2)CCCC1)c1ccccn1` [Example T-267], the IC50 in test [1] and in test [2] was at most 1000 nM throughout.
`C[C@H](NC(=O)c1ccc2c(c1)c1ccccc1c(=O)n2C1CCC(F)(F)CC1)c1ccccn1` [Example T-268]: the concentration for half-maximal inhibition (IC50) in test [1] and in test [2] was at most 1000 nM throughout.
Consider `C[C@H](NC(=O)c1ccc2c(c1)-c1cscc1CN2C1CCC(C(F)(F)F)CC1)c1ccccn1` (stereo partly drawn) [Example T-269], for which the IC50 in test [1] and in test [2] was at most 1000 nM in each case.
In the case of `C[C@H](NC(=O)c1ccc2c(c1)c1nn(C)cc1c(=O)n2Cc1ccc(C(F)(F)F)cc1)c1ccccn1` [Example T-270], the IC50 in test [1] and in test [2] was at most 1000 nM throughout.
For `C[C@H](NC(=O)c1ccc2c(c1)c1nn(C)cc1c(=O)n2Cc1ccccc1)c1ccccn1` [Example T-271], the concentration for half-maximal inhibition (IC50) in test [1] and in test [2] was at most 1000 nM throughout.
For the compound `C[C@H](NC(=O)c1ccc2c(c1)c1cscc1c(=O)n2-c1ccc(S(F)(F)(F)(F)F)cc1)c1ccccn1` [Example T-274], the IC50 in test [1] and in test [2] was at most 1000 nM in each case.
As for `Cc1c(Br)c(=O)n(-c2ccc(C(F)(F)F)cc2)c2ccc(C(=O)N[C@@H](C)c3ccccn3)cc12` [Example T-278], the half-maximal inhibitory concentration (IC50) in test [1] and in test [2] was at most 1000 nM each time.
Take `Cc1c(-c2ccccc2)c(=O)n(-c2ccc(C(F)(F)F)cc2)c2ccc(C(=O)N[C@@H](C)c3ccccn3)cc12` [Example T-279]: the IC50 in test [1] was at most 1000 nM; in test [2], 1000 to 5000 nM.
For `C=CC(=O)Nc1ccc2c(c1)c(C)cc(=O)n2-c1ccc(C(F)(F)F)cc1` [Example T-280] the same measures were at most 1000 nM and at most 1000 nM.
In the same order, the values of `CC1c2ccccc2-c2cc(C(=O)N[C@@H](C)c3ccccn3)ccc2N1c1ccc(C(F)(F)F)cc1` (stereo partly drawn) [Example T-281] are at most 1000 nM and at most 1000 nM.
`C[C@H](NC(=O)c1ccc2c(c1)C1CCCC1CN2c1ccc(C(F)(F)F)cc1)c1ccccc1` (stereo partly drawn) [Example T-283]: the IC50 in test [1] and in test [2] was 1000 to 5000 nM in each case.
`C=CC(=O)N[C@@H](C)c1c(C)c2ccccc2n(-c2ccc(C(F)(F)F)cc2)c1=O` [Example T-284]: the half-maximal inhibitory concentration (IC50) in test [1] and in test [2] was 1000 to 5000 nM in each case.
With `C=CC(=O)NC(C)c1c(C)c2ccccc2n(-c2ccc(C(F)(F)F)cc2)c1=O` (stereo not drawn) [Example T-285], the 50% inhibitory concentration (IC50) in test [1] and in test [2] was 1000 to 5000 nM throughout.
`C[C@H](NC(=O)c1ccc2c(c1)c1cocc1c(=O)n2-c1ccc(C(F)(F)F)cc1)c1ccccn1` [Example T-286]: the IC50 in test [1] and in test [2] was at most 1000 nM in each case.
For `C[C@H](NC(=O)c1ccc2c(c1)c1c(c(=O)n2-c2ccc(C(F)(F)F)cc2)CN(C)C1)c1ccccn1` [Example T-287], the IC50 in test [1] and in test [2] was at most 1000 nM each time.
Take `Cc1occ2c(=O)n(-c3ccc(C(F)(F)F)cc3)c3ccc(C(=O)N[C@@H](C)c4ccccn4)cc3c12` [Example T-288]: the IC50 in test [1] and in test [2] was at most 1000 nM in each case.
For `Cc1oc(C)c2c1c(=O)n(-c1ccc(C(F)(F)F)cc1)c1ccc(C(=O)N[C@@H](C)c3ccccn3)cc21` [Example T-289], the IC50 in test [1] and in test [2] was at most 1000 nM each time.
For the compound `C[C@H](NC(=O)c1ccc2c(c1)c1c(c(=O)n2-c2ccc(C(F)(F)F)cc2)CCC1F)c1ccccn1` (stereo partly drawn) [Example T-290], the IC50 in test [1] and in test [2] was at most 1000 nM in each case.
With `C[C@H](NC(=O)c1ccc2c(c1)c1c(c(=O)n2-c2ccc(C(F)(F)F)cc2)CC(F)C1)c1ccccn1` (stereo partly drawn) [Example T-291], the 50% inhibitory concentration (IC50) in test [1] and in test [2] was at most 1000 nM in each case.
In the case of `C[C@H](NC(=O)c1ccc2c(c1)c1c(c(=O)n2-c2ccc(C(F)(F)F)cc2)C(F)CC1)c1ccccn1` (stereo partly drawn) [Example T-292], the IC50 in test [1] and in test [2] was at most 1000 nM throughout.
As to `C[C@H](NC(=O)c1ccc2c(c1)c1c(c(=O)n2-c2ccc(C(F)(F)F)cc2)CCC1(F)F)c1ccccn1` [Example T-293], the concentration for half-maximal inhibition (IC50) in test [1] and in test [2] was at most 1000 nM in each case.
`C[C@H](NC(=O)c1ccc2c(c1)c1c(c(=O)n2-c2ccc(C(F)(F)F)cc2)CC(F)(F)C1)c1ccccn1` [Example T-294]: the concentration for half-maximal inhibition (IC50) in test [1] and in test [2] was at most 1000 nM in each case.
Turning to `C[C@H](NC(=O)c1ccc2c(c1)c1c(c(=O)n2-c2ccc(C(F)(F)F)cc2)C(F)(F)CC1)c1ccccn1` [Example T-295], the 50% inhibitory concentration (IC50) in test [1] and in test [2] was at most 1000 nM each time.
As to `Cc1scc2c(=O)n(-c3ccc(C(F)(F)F)cc3)c3ccc(C(=O)N[C@@H](C)c4ccccn4)cc3c12` [Example T-296], the IC50 in test [1] and in test [2] was at most 1000 nM each time.
On to `Cc1scc2c1c(=O)n(-c1ccc(C(F)(F)F)cc1)c1ccc(C(=O)N[C@@H](C)c3ccccn3)cc21` [Example T-297], for which the half-maximal inhibitory concentration (IC50) in test [1] and in test [2] was at most 1000 nM each time.
For the compound `C[C@H](NC(=O)c1ccc2c(c1)c1c(F)scc1c(=O)n2-c1ccc(C(F)(F)F)cc1)c1ccccn1` [Example T-298], the half-maximal inhibitory concentration (IC50) in test [1] and in test [2] was at most 1000 nM in each case.
